Assay results: patent US20070244179A1, “Dihydro[1,4]dioxino[2,3-e]indazole derivatives as 5-hydroxytryptamine-6 ligands” (Wyeth, priority 2006, published 2007)
Counter-ions that a name gives are not always drawn. Like-named read-outs stand apart in the source and are kept apart here.

Tests used:
[1] = biological target: human cloned 5-HT6 receptors (Homo sapiens, UniProt P50406); experiment: Evaluation of 5-HT6 binding affinity ([3H]-LSD displacement, membranes of Hela cells)
human cloned 5-HT6 receptors, sequence (P50406 whole entry): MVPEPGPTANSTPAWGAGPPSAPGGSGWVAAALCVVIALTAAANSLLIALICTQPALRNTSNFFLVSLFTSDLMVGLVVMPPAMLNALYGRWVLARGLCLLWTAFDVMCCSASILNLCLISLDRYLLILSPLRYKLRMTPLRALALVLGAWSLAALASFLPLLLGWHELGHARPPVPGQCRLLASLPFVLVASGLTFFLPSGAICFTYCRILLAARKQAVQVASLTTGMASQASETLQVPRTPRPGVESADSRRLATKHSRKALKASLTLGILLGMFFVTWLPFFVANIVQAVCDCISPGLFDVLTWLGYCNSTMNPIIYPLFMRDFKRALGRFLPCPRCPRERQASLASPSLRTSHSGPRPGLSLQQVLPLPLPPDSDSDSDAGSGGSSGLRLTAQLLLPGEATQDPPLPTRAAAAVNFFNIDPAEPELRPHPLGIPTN

SMILES	melting point	Ki [1]	other results
CCN(CC)C[C@H]1COc2ccc3[nH]nc(S(=O)(=O)c4cccc5ccccc45)c3c2O1 (as salt: hydrochloride) [Example 9, N-ethyl-N-{[(2S)-9-(1-naphthylsulfonyl)-2,3-dihydro-7H-[1,4]dioxino[2,3-e]indazol-2-yl]methyl}ethanamine]	175.6 to 177.2 °C	–	–
O=S(=O)(c1cccc2ccccc12)c1n[nH]c2ccc3c(c12)O[C@@H](CN1CCCC1)CO3 (as salt: hydrochloride) [Example 10, (2S)-9-(1-naphthylsulfonyl)-2-(pyrrolidin-1-ylmethyl)-2,3-dihydro-7H-[1,4]dioxino-[2,3-e]indazole]	182.6 to 184.3 °C	–	–
CNC[C@@H]1COc2ccc3[nH]nc(S(=O)(=O)c4cccc5ccccc45)c3c2O1 (as salt: hydrochloride) [Example 12, N-methyl-1-[(2R)-9-(1-naphthylsulfonyl)-2,3-dihydro-7H-[1,4]dioxino[2,3-e]indazol-2-yl]methanamine]	> 200 °C	–	–
CN(C)C[C@@H]1COc2ccc3[nH]nc(S(=O)(=O)c4cccc5ccccc45)c3c2O1 (as salt: hydrochloride) [Example 13, N,N-dimethyl-1-[(2R)-9-(1-naphthylsulfonyl)-2,3-dihydro-7H-[1,4]dioxino[2,3-e]-indazol-2-yl]methanamine]	> 200 °C	–	–
CNC[C@H]1COc2ccc3[nH]nc(S(=O)(=O)c4cccc5ccccc45)c3c2O1 [Example 6, N-Methyl-1-[(2S)-9-(1-naphthylsulfonyl)-2,3-dihydro-7H-[1,4]dioxino [2,3-e]indazol-2-yl]methanamine Hydrochloride]	–	44.5 nM	–
CCNC[C@H]1COc2ccc3[nH]nc(S(=O)(=O)c4cccc5ccccc45)c3c2O1 [Example 7, N-{[(2S)-9-(1-naphthylsulfonyl)-2,3-dihydro-7H-[1,4]dioxino[2,3-e]indazol-2-yl]-methyl}ethanamine]	–	84 nM	–
CN(C)C[C@H]1COc2ccc3[nH]nc(S(=O)(=O)c4cccc5ccccc45)c3c2O1 [Example 8, N,N-dimethyl-1-[(2S)-9-(1-naphthylsulfonyl)-2,3-dihydro-7H-[1,4]dioxino[2,3-e]-indazol-2-yl]methanamine]	–	61.5 nM	–
O=S(=O)(c1cccc2ccccc12)c1n[nH]c2ccc3c(c12)O[C@@H](CN1CCCC1)CO3 [Example 10, (2S)-9-(1-naphthylsulfonyl)-2-(pyrrolidin-1-ylmethyl)-2,3-dihydro-7H-[1,4]dioxino-[2,3-e]indazole]	–	31 nM	–
CN(C)C[C@@H]1COc2ccc3[nH]nc(S(=O)(=O)c4cccc5ccccc45)c3c2O1 [Example 13, N,N-dimethyl-1-[(2R)-9-(1-naphthylsulfonyl)-2,3-dihydro-7H-[1,4]dioxino[2,3-e]-indazol-2-yl]methanamine]	–	31 nM	–
O=S(=O)(c1cccc2ccccc12)c1n[nH]c2ccc3c(c12)O[C@H](CN1CCCC1)CO3 [Example 16, (2R)-9-(1-naphthylsulfonyl)-2-(pyrrolidin-1-ylmeyhyl)-2,3-dihydro-7H-[1,4]dioxino-[2,3-e]indazole]	–	39.5 nM	–
CCCCNC[C@@H]1COc2ccc3[nH]nc(S(=O)(=O)c4cccc5ccccc45)c3c2O1 [Example 18]	–	–	Ki ([1]; read-out: 5-HT6 Binding Ki, [3H]-LSD 3.0 nM, Hela cell membranes expressing human cloned 5-HT6 receptors, 120 minutes at room temperature): 30 nM

Second part, led by results:

melting point	Ki [1]	SMILES	other results
181.3 to 183.3 °C	–	CNC[C@H]1COc2ccc3[nH]nc(S(=O)(=O)c4cccc5ccccc45)c3c2O1 (as salt: hydrochloride) [Example 6, N-Methyl-1-[(2S)-9-(1-naphthylsulfonyl)-2,3-dihydro-7H-[1,4]dioxino [2,3-e]indazol-2-yl]methanamine Hydrochloride]	–
178.9 to 180.1 °C	–	CCNC[C@H]1COc2ccc3[nH]nc(S(=O)(=O)c4cccc5ccccc45)c3c2O1 (as salt: hydrochloride) [Example 7, N-{[(2S)-9-(1-naphthylsulfonyl)-2,3-dihydro-7H-[1,4]dioxino[2,3-e]indazol-2-yl]-methyl}ethanamine]	–
178.1 to 181.3 °C	–	CN(C)C[C@H]1COc2ccc3[nH]nc(S(=O)(=O)c4cccc5ccccc45)c3c2O1 (as salt: hydrochloride) [Example 8, N,N-dimethyl-1-[(2S)-9-(1-naphthylsulfonyl)-2,3-dihydro-7H-[1,4]dioxino[2,3-e]-indazol-2-yl]methanamine]	–
163.9 to 165.2 °C	–	O=S(=O)(c1cccc2ccccc12)c1n[nH]c2ccc3c(c12)O[C@@H](CN1CCCCC1)CO3 (as salt: hydrochloride) [Example 11, (2S)-9-(1-naphthylsulfonyl)-2-(piperidin-1-ylmethyl)-2,3-dihydro-7H-[1,4]dioxino-[2,3-e]indazole]	–
> 200 °C	–	CCN(CC)C[C@@H]1COc2ccc3[nH]nc(S(=O)(=O)c4cccc5ccccc45)c3c2O1 (as salt: hydrochloride) [Example 14, N-ethyl-N-{[(2R)-9-(1-naphthylsulfonyl)-2,3-dihydro-7H-[1,4]dioxino[2,3-e]indazol-2yl]-methyl}ethanamine]	–
182 to 184 °C	–	CCNC[C@@H]1COc2ccc3[nH]nc(S(=O)(=O)c4cccc5ccccc45)c3c2O1 (as salt: hydrochloride) [Example 15, N-{[(2R)-9-(1-naphthylsulfonyl)-2,3-dihydro-7H-[1,4]dioxino[2,3-e]indazol-2yl]methyl}-ethanamine]	–
184 to 186 °C	–	O=S(=O)(c1cccc2ccccc12)c1n[nH]c2ccc3c(c12)O[C@H](CN1CCCC1)CO3 (as salt: hydrochloride) [Example 16, (2R)-9-(1-naphthylsulfonyl)-2-(pyrrolidin-1-ylmeyhyl)-2,3-dihydro-7H-[1,4]dioxino-[2,3-e]indazole]	–
187 to 189 °C	–	O=S(=O)(c1cccc2ccccc12)c1n[nH]c2ccc3c(c12)O[C@H](CN1CCCCC1)CO3 (as salt: hydrochloride) [Example 17, (2R)-9-(1-naphthylsulfonyl)-2-(piperidin-1-ylmeyhyl)-2,3-dihydro-7H [1,4]dioxino-[2,3-e]indazole]	–
–	13.5 nM	CCN(CC)C[C@H]1COc2ccc3[nH]nc(S(=O)(=O)c4cccc5ccccc45)c3c2O1 [Example 9, N-ethyl-N-{[(2S)-9-(1-naphthylsulfonyl)-2,3-dihydro-7H-[1,4]dioxino[2,3-e]indazol-2-yl]methyl}ethanamine]	–
–	79 nM	O=S(=O)(c1cccc2ccccc12)c1n[nH]c2ccc3c(c12)O[C@@H](CN1CCCCC1)CO3 [Example 11, (2S)-9-(1-naphthylsulfonyl)-2-(piperidin-1-ylmethyl)-2,3-dihydro-7H-[1,4]dioxino-[2,3-e]indazole]	–
–	54.5 nM	CNC[C@@H]1COc2ccc3[nH]nc(S(=O)(=O)c4cccc5ccccc45)c3c2O1 [Example 12, N-methyl-1-[(2R)-9-(1-naphthylsulfonyl)-2,3-dihydro-7H-[1,4]dioxino[2,3-e]indazol-2-yl]methanamine]	–
–	42 nM	CCN(CC)C[C@@H]1COc2ccc3[nH]nc(S(=O)(=O)c4cccc5ccccc45)c3c2O1 [Example 14, N-ethyl-N-{[(2R)-9-(1-naphthylsulfonyl)-2,3-dihydro-7H-[1,4]dioxino[2,3-e]indazol-2yl]-methyl}ethanamine]	–
–	32.5 nM	CCNC[C@@H]1COc2ccc3[nH]nc(S(=O)(=O)c4cccc5ccccc45)c3c2O1 [Example 15, N-{[(2R)-9-(1-naphthylsulfonyl)-2,3-dihydro-7H-[1,4]dioxino[2,3-e]indazol-2yl]methyl}-ethanamine]	–
–	36.5 nM	O=S(=O)(c1cccc2ccccc12)c1n[nH]c2ccc3c(c12)O[C@H](CN1CCCCC1)CO3 [Example 17, (2R)-9-(1-naphthylsulfonyl)-2-(piperidin-1-ylmeyhyl)-2,3-dihydro-7H [1,4]dioxino-[2,3-e]indazole]	–
